According to US8470889B2 (TRT Pharma Inc., priority 2008, dated 2013):
Where two headings read alike, the source gives them in different places.

Tests used:
C4-2B cells = experiment: MTT cell growth inhibition, C4-2B;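 further: cells treated with a dilution series for 72 h, then MTT added and absorbance read at 600 nm, IC50 fitted from dose-response curves by nonlinear regression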
22Rv1 cells = experiment: MTT cell growth inhibition, 22Rv1; settings: MTT
Method: MDA PCa 2b was seeded at the same density in medium BRFF-HPC1 (Athena Enzyme Systems, Baltimore, Md., USA) supplemented with 20% FBS. After overnight incubation, the medium was changed to a fresh medium containing different concentrations of test compounds diluted from stock DMSO solution. The final concentration of DMSO is 0.5%. After 72 h of incubation with test compounds, 20 μL of 3-(4,5-dimethyl thiazol-2-yl)-2,5-diphenyltetrazolium bromide (MTT) solution (5 mg/mL in PBS) were added to each well and incubated further for 2 h. Next, the supernatant was aspirated and the MTT formazan formed by metabolically viable cells was dissolved in 100 μL of isopropanol. The plates were mixed for 30 min, and the absorbance was measured at 600 nm on a plate reader (FLUOstar OPTIMA, BMG LabTech). All samples were in triplicate. The IC50 values were determined from dose-response curves by nonlinear regression using PRISM v5.00 (GraphPad Software Inc, La Jolla, Calif., USA).
The in vitro cytotoxicity of 1-20 were evaluated by MTT assays in a panel of prostate cancer cell lines, including LNCaP, MDA PCa 2b, 22Rv1, C4-2B and PC-3.

PC-3 cells = experiment: MTT cell growth inhibition, PC-3
LNCaP cells = experiment: MTT cell growth inhibition, LNCaP;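 further: MTT formazan absorbance at 600 nm read after 72 h of compound exposure, IC50 fitted by nonlinear regression of dose-response curves, samples run in triplicate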
[1] = read-out: Cellular IC50 (μM) C4-2B, Table 8
[2] = read-out: Cellular IC50 (μM) 22Rv1, Table 8
[3] = read-out: Cellular IC50 (μM) PC3, Table 8
[4] = read-out: Cellular IC50 (μM) LNCaP, Table 8
[5] = read-out: Cellular IC50 (μM) PC-3, Table 9
[6] = read-out: Cellular IC50 (μM) LNCaP, Table 9
[7] = read-out: Cellular IC50 (μM) C4-2B, Table 9
[8] = read-out: Cellular IC50 (μM) 22Rv1, Table 9
[9] = read-out: IC50 (μM) C4-2B, Table 1, 72 h
[10] = read-out: IC50 (μM) PC-3, Table 1, 72 h, maximum tested concentration 50 μM
[11] = read-out: IC50 (μM) LNCaP, Table 1, 72 h

IC50 (22Rv1 cells; [2])	IC50 (PC-3 cells; [3])	IC50 (LNCaP cells; [4])	Compound	IC50 (C4-2B cells; [1])	further results
3.8 µM	4.3 µM	1.5 µM	CC1=C(/C=C/C(=O)/C=C/c2ccc(-c3cncnc3)cc2)C(C)(C)CCC1O (stereo not drawn) [Compound B58]	2.1 µM	
10.4 µM	11.5 µM	10.4 µM	CC1=C(/C=C/C(=O)/C=C/c2ccc(Oc3ccccc3)cc2)C(C)(C)CCC1O (stereo not drawn) [Compound B56]	7.5 µM	
	6.6 µM	1.3 µM	CC1=C(/C=C/C(=O)/C=C/c2ccc(OC(F)(F)F)cc2)C(C)(C)CCC1O (stereo not drawn) [Compound B54]		
			CC1(C)CCC(O)C=C1/C=C/C(=O)/C=C/c1ccc2c(c1)OC(F)(F)O2 (stereo not drawn) [Compound B77]		IC50 (PC-3 cells; [5]): 3.2 µM; IC50 (LNCaP cells; [6]): 1.1 µM
			COc1cc(/C=C/C(=O)/C(=C/c2ccc3ccccc3n2)C(=O)/C=C/C2=C(C)CCCC2(C)C)ccc1O [Compound 20]		IC50 (C4-2B cells; read-out: Cellular IC50 (μM) C4-2B, Table 2, 72 h): 5.3 µM; IC50 (22Rv1 cells; read-out: Cellular IC50 (μM) 22Rv1, Table 2, 72 h): 5.1 µM; IC50 (PC-3 cells; read-out: Cellular IC50 (μM) PC-3, Table 2, 72 h, max tested 50 μM (β-ionone 150 μM)): 15.2 µM; IC50 (LNCaP cells; read-out: Cellular IC50 (μM) LNCaP, Table 2, 72 h): 8.5 µM
			Cn1cc(/C=C/C(=O)/C=C/C2=CC(O)CCC2(C)C)c2ccccc21 (stereo not drawn) [Compound B88]		IC50 (C4-2B cells; [7]): 11.8 µM; IC50 (22Rv1 cells; [8]): 21 µM; IC50 (PC-3 cells; [5]): 54.9 µM; IC50 (LNCaP cells; [6]): 9.4 µM
8.6 µM	36.1 µM	5.5 µM	CCOc1ccc(/C=C/C(=O)/C=C/C2=C(C)C(O)CCC2(C)C)cc1OCC (stereo not drawn) [Compound B71]	10.5 µM	
			CC1(C)CCC(O)C=C1/C=C/C(=O)/C=C/c1ccc2c(c1)OCCO2 (stereo not drawn) [Compound B78]		IC50 (C4-2B cells; [7]): 10.3 µM; IC50 (22Rv1 cells; [8]): 19.3 µM; IC50 (PC-3 cells; [5]): 23.2 µM; IC50 (LNCaP cells; [6]): 10.8 µM
			CC1(C)CCC(O)C=C1/C=C/C(=O)/C=C/c1cc2ccccc2s1 (stereo not drawn) [Compound B93]		IC50 (C4-2B cells; [7]): 9.9 µM; IC50 (22Rv1 cells; [8]): 17.6 µM; IC50 (PC-3 cells; [5]): 23.8 µM; IC50 (LNCaP cells; [6]): 12.9 µM
42 µM	13 µM	8.8 µM	CC1=C(/C=C/C(=O)/C=C/c2ccc(N(C)C)cc2)C(C)(C)CCC1O (stereo not drawn) [Compound B63]		
			COc1cc(/C=C/C(O)=C/C(=O)/C=C/C2=C(C)CCCC2(C)C)cc(OC)c1OC [Compound 7]		IC50 (C4-2B cells; [9]): 11.9 µM; IC50 (22Rv1 cells; read-out: IC50 (μM) 22Rv1, Table 1, 72 h): 17.1 µM; IC50 (PC-3 cells; [10]): > 50 µM; IC50 (LNCaP cells; [11]): 21.4 µM
			CC1(C)CCC(O)C=C1/C=C/C(=O)/C=C/c1ccnc2ccccc12 (stereo not drawn) [Compound B96]		IC50 (C4-2B cells; [7]): 1.5 µM; IC50 (22Rv1 cells; [8]): 1.2 µM; IC50 (PC-3 cells; [5]): 2.2 µM; IC50 (LNCaP cells; [6]): 1.5 µM
8.2 µM	6.8 µM	2.1 µM	COc1ccc(/C=C/C(=O)/C=C/C2=C(C)C(O)CCC2(C)C)cc1OC (stereo not drawn) [Compound B70]		
31.2 µM	22.5 µM	17.8 µM	CC1=C(/C=C/C(=O)/C=C/c2ccc(N3CCCCC3)cc2)C(C)(C)CCC1O (stereo not drawn) [Compound B59]	19.7 µM	
			CC1(C)CCC(O)C=C1/C=C/C(=O)/C=C/c1c[nH]c2ccccc12 (stereo not drawn) [Compound B81]		IC50 (C4-2B cells; [7]): 2.3 µM; IC50 (22Rv1 cells; [8]): 9.1 µM; IC50 (PC-3 cells; [5]): 15.2 µM; IC50 (LNCaP cells; [6]): 4.6 µM
			CCOc1ccc(/C=C/C(O)=C/C(=O)/C=C/C2=C(C)CCCC2(C)C)cc1OCC [Compound 4]		IC50 (C4-2B cells; [9]): 22.6 µM; IC50 (PC-3 cells; [10]): 53.3 µM; IC50 (LNCaP cells; [11]): 30 µM
21 µM	> 25 µM	15.5 µM	COc1cc(OC)c(/C=C/C(=O)/C=C/C2=C(C)C(O)CCC2(C)C)c(OC)c1 (stereo not drawn) [Compound B74]	11.6 µM	
			COc1ccc(/C=C/C(O)=C/C(=O)/C=C/C2=C(C)CCCC2(C)C)cc1O [Compound 2]		IC50 (C4-2B cells; [9]): 23.1 µM; IC50 (PC-3 cells; [10]): 38.3 µM; IC50 (LNCaP cells; [11]): 25.9 µM
4.6 µM	7.1 µM	1.9 µM	COc1ccccc1/C=C/C(=O)/C=C/C1=C(C)C(O)CCC1(C)C (stereo not drawn) [Compound B65]	2.6 µM	
12.3 µM	18.6 µM	11.5 µM	CC1=C(/C=C/C(=O)/C=C/c2ccc(C)cc2)C(C)(C)CCC1O (stereo not drawn) [Compound B51]	5.9 µM	
5.2 µM	11.9 µM	2.9 µM	CC1=C(/C=C/C(=O)/C=C/c2ccc(-c3ccccc3)cc2)C(C)(C)CCC1O (stereo not drawn) [Compound B57]	6 µM	
	2 µM	2.4 µM	CC1=C(/C=C/C(=O)/C=C/c2cccc(Oc3ccccc3)c2)C(C)(C)CCC1O (stereo not drawn) [Compound B48]		
			CC1(C)CCC(O)C=C1/C=C/C(=O)/C=C/c1c[nH]c2ccc(Cl)cc12 (stereo not drawn) [Compound B84]		IC50 (C4-2B cells; [7]): 18.2 µM; IC50 (22Rv1 cells; [8]): 14.3 µM; IC50 (PC-3 cells; [5]): 24.5 µM; IC50 (LNCaP cells; [6]): 17.8 µM

Compound	IC50 (22Rv1 cells; [2])	IC50 (PC-3 cells; [3])	IC50 (LNCaP cells; [4])	IC50 (C4-2B cells; [1])	further results
CC1=C(/C=C/C(=O)/C=C/c2ccc(N3CCOCC3)cc2)C(C)(C)CCC1O (stereo not drawn) [Compound B60]		16 µM	3.9 µM		
